Data reported in ChEMBL document CHEMBL3046201, “Insights into the molecular mechanism of tolerance to carboxylic acid amide (CAA) fungicides in Pythium aphanidermatum” (2012).
Activity calls are given as the source filed them. No cut-off for these calls is given here.

Experiments:
[1] = system: Pythium aphanidermatum; assay: Effect on PaChs gene expression in Pythium aphanidermatum at 200 uM after 0.5 to 8 hr by qRT-PCR method; type: functional, organism-based
[2] = system: Pythium aphanidermatum; assay: Effect on CesA4 gene expression in Pythium aphanidermatum at 100 uM after 0.5 to 8 hr by qRT-PCR method; type: functional, organism-based
[3] = system: Saprolegnia monoica; assay: Antifungal activity against Saprolegnia monoica assessed as inhibition of mycelial growth at 200 uM after 3 days; type: functional; settings: 72 h, read-out: GI
[4] = system: Pythium aphanidermatum; assay: Inhibition of germ tube elongation of Pythium aphanidermatum synchronised cytospores at >100 uM after 4 hr; type: functional, organism-based
[5] = system: Pythium aphanidermatum; assay: Inhibition of zoospores release of Pythium aphanidermatum synchronised cytospores at 100 uM after 4 hr; type: functional, organism-based
[6] = system: Pythium aphanidermatum; assay: Inhibition of germ tube elongation of Pythium aphanidermatum synchronised cytospores at 500 uM after 4 hr; type: functional
[7] = system: Pythium aphanidermatum; assay: Effect on PaChs gene expression in Pythium aphanidermatum at 100 uM after 0.5 to 8 hr by qRT-PCR method; type: functional, organism-based
[8] = system: Pythium aphanidermatum; assay: Effect on CesA4 gene expression in Pythium aphanidermatum at 200 uM after 8 hr by qRT-PCR method; type: functional, organism-based
[9] = system: Pythium aphanidermatum; assay: Effect on CesA3 gene expression in Pythium aphanidermatum at 100 uM after 0.5 to 8 hr by qRT-PCR method; type: functional, organism-based
[10] = system: Pythium aphanidermatum; assay: Effect on CesA1 gene expression in Pythium aphanidermatum at 200 uM after 8 hr by qRT-PCR method; type: functional, organism-based
[11] = system: Pythium aphanidermatum; assay: Down-regulation of CesA2 gene expression in Pythium aphanidermatum at 200 uM after 0.5 to 4 hr by qRT-PCR method; type: functional, organism-based
[12] = system: Pythium aphanidermatum; assay: Down-regulation of CesA4 gene expression in Pythium aphanidermatum at 200 uM after 0.5 to 4 hr by qRT-PCR method; type: functional, organism-based
[13] = system: Pythium aphanidermatum; assay: Down-regulation of CesA3 gene expression in Pythium aphanidermatum at 200 uM after 0.5 to 4 hr by qRT-PCR method; type: functional, organism-based
[14] = system: Pythium aphanidermatum; assay: Down-regulation of CesA1 gene expression in Pythium aphanidermatum at 200 uM after 0.5 to 4 hr by qRT-PCR method; type: functional, organism-based
[15] = system: Pythium aphanidermatum; assay: Inhibition of zoospores encystment of Pythium aphanidermatum synchronised cytospores at 100 uM after 4 hr; type: functional, organism-based
[16] = system: Pythium aphanidermatum; assay: Effect on CesA3 gene expression in Pythium aphanidermatum at 200 uM after 8 hr by qRT-PCR method; type: functional, organism-based
[17] = system: Pythium aphanidermatum; assay: Antifungal activity against Pythium aphanidermatum assessed as inhibition of mycelial growth at 200 uM after 3 days; type: functional; settings: 72 h, read-out: GI
[18] = system: Pythium aphanidermatum; assay: Effect on CesA2 gene expression in Pythium aphanidermatum at 200 uM after 8 hr by qRT-PCR method; type: functional, organism-based
[19] = system: Pythium aphanidermatum; assay: Antifungal activity against Pythium aphanidermatum assessed as inhibition of mycelial growth at 10 uM after 3 days; type: functional, organism-based
[20] = system: Pythium aphanidermatum; assay: Antifungal activity against Pythium aphanidermatum assessed as inhibition of mycelial growth at 100 uM after 3 days; type: functional; settings: 72 h, read-out: GI
[21] = system: Pythium aphanidermatum; assay: Up-regulation of CesA1 gene expression in Pythium aphanidermatum at 100 uM after 8 hr by qRT-PCR method relative to untreated control; type: functional
[22] = system: Pythium aphanidermatum; assay: Inhibition of germ tube elongation of Pythium aphanidermatum synchronised cytospores at 0.5 to 121 uM after 4 hr; type: functional, organism-based
[23] = system: Pythium aphanidermatum; assay: Up-regulation of CesA2 gene expression in Pythium aphanidermatum at 100 uM after 8 hr by qRT-PCR method relative to untreated control; type: functional

## N#Cc1c(Cl)cccc1Cl [DICHLOBENIL]
[1]
  Activity: inactive
[2]
  Activity: inactive
[3]
  inhibition of growth at 200 µM: 40%
[4]
  inhibition: Active
[5]
  inhibition: inactive
[6]
  inhibition at 500 µM: 18%
[7]
  Activity: inactive
[8]
  Activity: inactive
[9]
  Activity: inactive
[10]
  Activity: inactive
[11]
  Activity: Active
[12]
  Activity: Active
[13]
  Activity: Active
[14]
  Activity: Active
[15]
  inhibition: inactive
[16]
  Activity: inactive
[17]
  inhibition of growth at 200 µM: 12%
[18]
  Activity: inactive

## C#CCOc1ccc(CCNC(=O)C(OCC#C)c2ccc(Cl)cc2)cc1OC (stereo not drawn) [MANDIPROPAMID]
[19]
  growth inhibition (GI): inactive
[20]
  inhibition of growth at 100 µM: 34%
[21]
  fold change (FC): 1.6
[22]
  inhibition: inactive
[23]
  fold change (FC): 2
